Assay results published in patent publication US8450278B2, “MUC18 targeting peptides” (Board of Regents, The University of Texas System, priority 2008, dated 2013).
“Also recorded” adds a separate entry of the source.

Test system: B16 melanoma cells
Assay: Phage binding assay on B16 melanoma cells pre and post co-culture with B-1 lymphocytes
Assay type: cell-based, mouse
Text: The inventors used a random phage library displaying the insert CX7C(C, cysteine; X, any residue) for selection of peptides binding to melanoma cells post co-culture with B-1 lymphocytes (Giordano et al., 2001). As a pre-clearing step, 10^6 B16 cells without exposure to B-1 lymphocytes were detached, washed and resuspended in RPMI containing 2% BSA plus 10^9 transducing units (TU) of unselected phage library. Cells and phage were transferred to the top of a non-miscible organic lower phase (dibutyl phthalate: cyclohexane, 9:1 [v:v]) and centrifuged at 10,000 g for 10 min. The unbound phage population remaining in the aqueous upper phase (pre-cleared library) was collected into a fresh eppendorf tube and incubated with 10^6 B16 cells isolated post co-culture with B-1 lymphocytes. Phage in the organic lower phase were recovered from the cell pellet by bacterial host infection (Pasqualini et al., 2000; Cardo-Vila et al., 2003; Marchio et al., 2004; Marchio et al., 2004; Kolonin et al., 2004; Arap et al, 2004; Hajitou et al., 2006).
For phage binding assays to B16 melanoma, 10^6 cells pre and post co-culture with B-1 lymphocytes were incubated with each specific phage clone (10^9 TU) or negative controls. Melanoma cells and phage were centrifuged through the organic phase and the cell-bound phage clones were recovered by bacterial infection (Giordano et al., 2001).

Question: CLFMRLAWC [SEQ ID NO:1] was tested. Which “phage/peptide binding to melanoma cells (in words)” value did it give?
Answer: marked enrichment in phage binding; also recorded: selectively bind to cancerous cells
